From patent US20240120519A1, “NON-AQUEOUS REDOX FLOW BATTERIES” (ENI S.P.A., priority 2020, published 2024)
Read-outs that look alike come from different tables or passages of the source.

Legend:
[1] = Cyclic voltammetry measurements (oxidation-reduction potentials); format: physicochemical; conditions: for E°′ ACN (V vs Fc/Fc^+): acetonitrile; for E°′ ACN (V vs Fc/Fc^+) / E°′ PC (V vs Fc/Fc^+): 0.1 M TBABF4, glassy carbon working electrode, 25° C., normalised to Fc/Fc^+; for E°′ PC (V vs Fc/Fc^+): propylene carbonate
Method: Cyclic voltammetry measurements were carried out in a hemi-cell with a three-electrode configuration, with glassy carbon working electrode, platinum counter electrode and silver/silver chloride (Ag/AgCl) reference electrode. The oxidation-reduction potentials E°′Ox/Red were derived from the position of the forward peak (Epf) and the return peak (Epr):
and the values were normalised with respect to the intersolvent ferrocene/ferrocenium (Fc/Fc^+) couple.
Evaluations were carried out on an Autolab PGSTAT 128N analytical instrument at scan rates of 10, 20, 50, 70, 100, and 200 mV/s. All evaluations were carried out in triplicate at room temperature (25° C.). For the purpose, use was made of solutions containing: • benzothiadiazole (1) (Aldrich) (5×10^−3 M) and tetrabutylammonium tetrafluoro-borate (TBABF4) (Aldrich) (0.1 M) in acetonitrile (Aldrich) (non-aqueous liquid negative electrolyte of the negative compartment) (BTD); • benzothiadiazole (1) (Aldrich) (5×10^−3 M) and tetrabutylammonium tetrafluoro-borate (TBABF4) (Aldrich) (0.1 M) in propylene carbonate (Aldrich) (non-aqueous liquid negative electrolyte of the negative compartment) (BTD); • 4,7-di[2-(propyloxycarbonylethyloxy)phenyl]-benzothiadiazole [compound (2) obtained in Example 7] (5×10^−3 M) and tetrabutylammonium tetrafluoroborate (TBABF4) (Aldrich) (0.1 M) in acetonitrile (Aldrich) (non-aqueous liquid negative electrolyte of the negative compartment) (BTD); • 4,7-di[2-(propyloxycarbonylethyloxy)phenyl]-benzothiadiazole [compound (2) obtained in Example 7] (5×10^−3 M) and tetrabutylammonium tetrafluoroborate (TBABF4) (Aldrich) (0.1 M) in propylene carbonate (Aldrich) (non-aqueous liquid negative electrolyte of the negative compartment) [BTD (2)]; • 4,7-di[2-methoxycarbonylethyloxy)phenyl]-benzothiadiazole [compound (3) obtained in Example 1] (5×10^−3 M) and tetrabutylammonium tetrafluoroborate (TBABF4) (Aldrich) (0.1 M) in acetonitrile (Aldrich) (non-aqueous liquid negative electrolyte of the negative compartment) [BTD (3)]; • 4,7-di[2-(methoxycarbonylethyloxy)phenyl]-benzothiadiazole [compound (3) obtained in Example 1] (5×10^−3 M) and tetrabutylammonium tetrafluoroborate (TBABF4) (Aldrich) (0.1 M) in propylene carbonate (Aldrich) (non-aqueous liquid negative electrolyte of the negative compartment) [BTD (3)]; • 4,7-di[2-(2-(2-methoxyethoxy)ethoxy)phenyl]-benzothiadiazole [compound (4) obtained in Example 3] (5×10^−3 M) and tetrabutylammonium tetrafluoroborate (TBABF4) (Aldrich) (0.1 M) in acetonitrile (Aldrich) (non-aqueous liquid negative electrolyte of the negative compartment) [BTD (4)]; • 4,7-di[2-(2-(2-methoxyethoxy)ethoxy)phenyl]-benzothiadiazole [compound (4) obtained in Example 3] (5×10^−3 M) and tetrabutylammonium tetrafluoroborate (TBABF4) (Aldrich) (0.1 M) in propylene carbonate (Aldrich) (non-aqueous liquid negative electrolyte of the negative compartment) [BTD (4)]; • 4,7-di[2,6-di(propyloxycarbonylethyloxy)phenyl]-benzothiadiazole [compound (5) obtained in Example 4] (5×10^−3 M) and tetrabutylammonium tetrafluoroborate (TBABF4) (Aldrich) (0.1 M) in acetonitrile (Aldrich) (non-aqueous liquid negative electrolyte of the negative compartment) [BTD (5)]; • 4,7-di[2,6-di(propyloxycarbonylethyloxy)phenyl]-benzothiadiazole [compound (5) obtained in Example 4] (5×10^−3 M) and tetrabutylammonium tetrafluoroborate (TBABF4) (Aldrich) (0.1 M) in propylene carbonate (Aldrich) (non-aqueous liquid negative electrolyte of the negative compartment) [BTD (5)]; • 4,7-di[2,5-di(propyloxycarbonylethyloxy)phenyl]-benzothiadiazole [compound (6) obtained in Example 5] (5×10^−3 M) and tetrabutylammonium tetrafluoroborate (TBABF4) (Aldrich) (0.1 M) in acetonitrile (Aldrich) (non-aqueous liquid negative electrolyte of the negative compartment) [BTD (6)]; • 4,7-di[2,5-di(propyloxycarbonylethyloxy)phenyl]-benzothiadiazole [compound (6) obtained in Example 5] […]

[2] = Stability tests in cyclic voltammetry; format: physicochemical; conditions: 1×10^−3 M, 0.1 M TBABF4 in acetonitrile
Method: Stability tests were carried out using the same electrochemical cell as in Example 9.
For the purpose, use was made of solutions containing: • 4,7-di[2-(propyloxycarbonylethyloxy)phenyl]-benzothiadiazole [Compound (2) obtained in Example 2 or 7] (1×10^−3 M) and tetrabutylammonium tetrafluoroborate (TBABF4) (Aldrich) 0.1 M in acetonitrile (Aldrich) (non-aqueous liquid negative electrolyte of the negative compartment).

[3] = Non-aqueous redox flow battery (RFB) charge/discharge tests
Method: Charge-discharge tests were carried out using an electrochemical cell with a Teflon® membrane (DuPont), having a surface area equal to approximately 0.8 cm^2, placed between two platinum electrodes (Methrohm) having a surface area equal to approximately 0.07 cm^2. The electrochemical cell was then assembled and sealed in a container containing argon (Ar).
For the purpose, use was made of solutions containing: • 4,7-di[2-(propyloxycarbonylethyloxy)phenyl]-benzothiadiazole [Compound (2) obtained in Example 7]: (1×10^−3 M) and tetrabutylammonium tetrafluoroborate (TBABF4) (Aldrich) (0.1 M) in acetonitrile (Aldrich) (non-aqueous liquid negative electrolyte of the negative compartment), degassed with argon (Ar) and subjected to electrolysis in order to obtain benzothiadiazole in reduced form [(BTD (2)·^−)]; • tetrakisacetonitrile copper(I) tetrafluoroborate [Cu(NCCH3)4·BF4] (1×10^−3 M) and tetrabutylammonium tetrafluoroborate (TBABF4) (Aldrich) (0.1 M) in acetonitrile (Aldrich) (non-aqueous liquid positive electrolyte of the positive compartment) (Cu triflate), degassed with argon (Ar).
6 ml of the above solutions were introduced into the respective compartments.
The test was carried out using a potentiostat/galvanostat Autolab PGSTAT 128N (Metrohom) at room temperature (25° C.).
Charge and discharge curves were carried out to assess the performance of the electrolytes in the cell. […]

| SMILES | E°′ ACN (V vs Fc/Fc^+) [1] | E°′ PC (V vs Fc/Fc^+) [1] | potential difference (E°) in open circuit ([1]; solution in acetonitrile, E°=(E°1)−(E°2) against Cu triflate (0.62 V)) | stability over 150 successive redox cycles [2] | stability during charge/discharge (oxidation-reduction cycles) [3] | stability during charge/discharge (oxidation-reduction cycles) ([3]; 1×10^−3 M in acetonitrile, 0.1 M TBABF4, Teflon membrane, charge 2.5 V, discharge 0.5 V, 240 seconds each, 25° C.) |
| --- | --- | --- | --- | --- | --- | --- |
| CCOC(=O)CCCOc1ccccc1-c1ccc(-c2ccccc2OCCCC(=O)OCC)c2nsnc12 [Compound (2)] | −1.91 V vs Fc/Fc^+ | −1.84 V vs Fc/Fc^+ | 2.53 V | the cycles are superimposable | good stability during oxidation-reduction cycles |  |
| CCOC(=O)COc1ccccc1-c1ccc(-c2ccccc2OCC(=O)OCC)c2nsnc12 [Compound (3)] | −1.86 V vs Fc/Fc^+ | −1.82 V vs Fc/Fc^+ |  |  |  |  |
| COCCOCCOc1ccccc1-c1ccc(-c2ccccc2OCCOCCOC)c2nsnc12 [Compound (4), 4,7-di[2-(2-(2-methoxyethoxy)ethoxy)phenyl]-benzothiadiazole] | −1.90 V vs Fc/Fc^+ | −1.85 V vs Fc/Fc^+ |  |  |  |  |
| CCOC(=O)CCCOc1cccc(OCCCC(=O)OCC)c1-c1ccc(-c2c(OCCCC(=O)OCC)cccc2OCCCC(=O)OCC)c2nsnc12 [Compound (5)] | −2.00 V vs Fc/Fc^+ | −1.95 V vs Fc/Fc^+ |  |  |  |  |
| CCOC(=O)CCCOc1ccc(OCCCC(=O)OCC)c(-c2ccc(-c3cc(OCCCC(=O)OCC)ccc3OCCCC(=O)OCC)c3nsnc23)c1 [Compound (6)] | −1.88 V vs Fc/Fc^+ | −1.83 V vs Fc/Fc^+ |  |  |  |  |
| CCOC(=O)CCCOc1ccc(-c2ccc(-c3ccc(OCCCC(=O)OCC)cc3OCCCC(=O)OCC)c3nsnc23)c(OCCCC(=O)OCC)c1 [Compound (7)] | −1.93 V vs Fc/Fc^+ | −1.88 V vs Fc/Fc^+ |  |  |  |  |
| O=S(=O)([O-])C(F)(F)F.O=S(=O)([O-])C(F)(F)F.[Cu+2] [Cu triflate, copper(II) trifluoromethanesulphonate, reference compound] | 0.62 V vs Fc/Fc^+ | 0.43 V vs Fc/Fc^+ |  |  |  |  |
| CC#N.CC#N.CC#N.CC#N.F[B-](F)(F)F.[Cu+] [Cu, tetrakisacetonitrile copper(I) tetrafluoroborate, reference compound] |  |  |  |  |  | good stability during oxidation-reduction cycles |
